T1: rat brain COMT (Rattus norvegicus, UniProt P22734)
T1 construct: Aliquots of 0.5 ml of liver and whole brain homogenates were preincubated; from tissue; host or cells: whole brain homogenate of male Wistar rats
T1 sequence (P22734 1-264): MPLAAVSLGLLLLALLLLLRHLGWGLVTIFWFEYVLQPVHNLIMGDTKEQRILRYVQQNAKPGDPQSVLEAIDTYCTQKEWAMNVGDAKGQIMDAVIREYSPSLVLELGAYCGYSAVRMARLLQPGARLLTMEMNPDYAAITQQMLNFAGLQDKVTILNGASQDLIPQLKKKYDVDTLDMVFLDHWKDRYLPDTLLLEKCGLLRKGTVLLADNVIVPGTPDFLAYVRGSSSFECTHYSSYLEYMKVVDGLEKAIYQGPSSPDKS

T2: liver COMT (Rattus norvegicus, UniProt P22734)
T2 construct: Aliquots of 0.5 ml of liver and whole brain homogenates were preincubated; from tissue; host or cells: liver homogenate of male Wistar rats
T2 sequence (P22734 44-264 limits assumed): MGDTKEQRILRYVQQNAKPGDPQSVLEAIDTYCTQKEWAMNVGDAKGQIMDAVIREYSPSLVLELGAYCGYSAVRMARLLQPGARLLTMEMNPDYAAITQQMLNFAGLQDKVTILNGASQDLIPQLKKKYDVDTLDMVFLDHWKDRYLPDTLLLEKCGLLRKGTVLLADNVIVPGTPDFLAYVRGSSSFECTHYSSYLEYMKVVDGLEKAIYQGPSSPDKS

T3: brain COMT (Rattus norvegicus, UniProt P22734)
T3 construct: Aliquots of 0.5 ml of liver and whole brain homogenates were preincubated; from tissue; host or cells: whole brain homogenate of male Wistar rats
T3 sequence (P22734 1-264): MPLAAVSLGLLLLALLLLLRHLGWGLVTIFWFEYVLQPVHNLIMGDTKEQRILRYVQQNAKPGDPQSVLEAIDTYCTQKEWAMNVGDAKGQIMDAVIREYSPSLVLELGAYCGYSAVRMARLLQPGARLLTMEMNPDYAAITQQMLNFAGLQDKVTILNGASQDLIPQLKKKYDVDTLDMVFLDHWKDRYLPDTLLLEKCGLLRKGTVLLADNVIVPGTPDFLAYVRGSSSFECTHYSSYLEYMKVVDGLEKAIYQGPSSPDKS

T4: rat liver COMT (Rattus norvegicus, UniProt P22734)
T4 construct: Aliquots of 0.5 ml of liver and whole brain homogenates were preincubated; from tissue; host or cells: liver homogenate of male Wistar rats
T4 sequence (P22734 44-264 limits assumed): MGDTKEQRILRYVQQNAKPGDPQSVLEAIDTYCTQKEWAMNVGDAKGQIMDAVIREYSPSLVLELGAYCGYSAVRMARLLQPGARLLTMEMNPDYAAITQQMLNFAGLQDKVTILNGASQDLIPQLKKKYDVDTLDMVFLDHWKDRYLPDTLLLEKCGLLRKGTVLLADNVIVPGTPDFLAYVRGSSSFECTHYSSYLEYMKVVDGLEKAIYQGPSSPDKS

B1: rat brain COMT (Rattus norvegicus) (protein)
chain: MPLAAVSLGLLLLALLLLLRHLGWGLVTIFWFEYVLQPVHNLIMGDTKEQRILRYVQQNAKPGDPQSVLEAIDTYCTQKEWAMNVGDAKGQIMDAVIREYSPSLVLELGAYCGYSAVRMARLLQPGARLLTMEMNPDYAAITQQMLNFAGLQDKVTILNGASQDLIPQLKKKYDVDTLDMVFLDHWKDRYLPDTLLLEKCGLLRKGTVLLADNVIVPGTPDFLAYVRGSSSFECTHYSSYLEYMKVVDGLEKAIYQGPSSPDKS
B2: rat liver COMT (Rattus norvegicus) (protein)
chain: MGDTKEQRILRYVQQNAKPGDPQSVLEAIDTYCTQKEWAMNVGDAKGQIMDAVIREYSPSLVLELGAYCGYSAVRMARLLQPGARLLTMEMNPDYAAITQQMLNFAGLQDKVTILNGASQDLIPQLKKKYDVDTLDMVFLDHWKDRYLPDTLLLEKCGLLRKGTVLLADNVIVPGTPDFLAYVRGSSSFECTHYSSYLEYMKVVDGLEKAIYQGPSSPDKS

Experiments:
[1] = biological target: T1, rat brain COMT; assay: In vitro COMT inhibition, rat brain homogenate (methylation of adrenaline to metanephrine); type: biochemical
[2] = biological target: T2, liver COMT; assay: Liver COMT activity in homogenates after administration of test compounds by gastric tube; type: in vivo; conditions: for % inhibition of COMT activity, liver, 0.5 h / % inhibition of COMT activity, liver, 1 h / % inhibition of COMT activity, liver, 3 h / % inhibition of COMT activity, liver, 6 h / % inhibition of COMT activity, liver, 9 h: rat liver homogenate, mean ± S.E.M., n=4; for % inhibition of COMT activity, liver, 0.5 h: 0.5 h after administration by gastric tube; for % inhibition of COMT activity, liver, 1 h: 1 h after administration by gastric tube; for % inhibition of COMT activity, liver, 3 h: 3 h after administration by gastric tube; for % inhibition of COMT activity, liver, 6 h: 6 h after administration by gastric tube; for % inhibition of COMT activity, liver, 9 h: 9 h after administration by gastric tube
[3] = biological target: T3, brain COMT; assay: Brain COMT activity in homogenates after administration of test compounds by gastric tube; type: in vivo; conditions: for % inhibition of COMT activity, brain, 0.5 h / % inhibition of COMT activity, brain, 1 h / % inhibition of COMT activity, brain, 3 h / % inhibition of COMT activity, brain, 6 h / % inhibition of COMT activity, brain, 9 h: rat brain homogenate, mean ± S.E.M., n=4; for % inhibition of COMT activity, brain, 0.5 h: 0.5 h after administration by gastric tube; for % inhibition of COMT activity, brain, 1 h: 1 h after administration by gastric tube; for % inhibition of COMT activity, brain, 3 h: 3 h after administration by gastric tube; for % inhibition of COMT activity, brain, 6 h: 6 h after administration by gastric tube; for % inhibition of COMT activity, brain, 9 h: 9 h after administration by gastric tube
[4] = biological target: T4, rat liver COMT; assay: In vitro COMT inhibition, rat liver homogenate (methylation of adrenaline to metanephrine); type: biochemical
[5] = test system: rats; assay: Behavioural testing: potentiation of amphetamine-induced hyperactivity (locomotor activity, stereotypies); type: in vivo, rat; conditions: for pattern of locomotor activity and stereotyped behaviour versus corresponding controls: given p.o. six hours before amphetamine challenge (0.5, 2.0, 4.0 mg/kg s.c.)
[6] = literature values (Dingemanse 1995; Keranen 1994); cited from earlier work
[7] = substrate: CNCC(O)c1ccc(O)c(O)c1; assay: cells, lysate or membranes named; conditions: saturation experiments, 95% confidence intervals, pH 7.8
[8] = COMT inhibitor 30 mg/kg p.o. 6 h before amphetamine challenge (s.c.)

| Molecule | IC50 [1] [nM] | % inhibition of COMT activity, liver, 0.5 h [2] [%] | % inhibition of COMT activity, liver, 1 h [2] [%] | % inhibition of COMT activity, liver, 3 h [2] [%] | % inhibition of COMT activity, liver, 6 h [2] [%] | % inhibition of COMT activity, liver, 9 h [2] [%] | % inhibition of COMT activity, brain, 0.5 h [3] [%] | % inhibition of COMT activity, brain, 1 h [3] [%] | % inhibition of COMT activity, brain, 3 h [3] [%] | % inhibition of COMT activity, brain, 6 h [3] [%] | % inhibition of COMT activity, brain, 9 h [3] [%] | IC50 [4] [nM] | further results |
| --- | --- | --- | --- | --- | --- | --- | --- | --- | --- | --- | --- | --- | --- |
| O=C(CCCc1ccccc1)c1cc(O)c(O)c([N+](=O)[O-])c1 [D] | 2.9 | 97.5 ± 0.1 | 95.3 ± 0.8 | 67.5 ± 7.8 | 52.0 ± 9.5 | 39.0 ± 13.2 | 85.1 ± 1.7 | 69.3 ± 5.1 | 33.5 ± 4.4 | 26.7 ± 4.0 | 12.2 ± 5.8 | 1850 |  |
| CNCC(O)c1ccc(O)c(O)c1 (centres unmarked) [adrenaline, reference compound] |  |  |  |  |  |  |  |  |  |  |  |  | Vmax of adrenaline O-methylation, brain ([1]; whole brain homogenate, saturation experiments): 1.35±0.02 nmol mg protein^−1 h^−‘; Vmax of adrenaline O-methylation, liver ([4]; liver homogenate, saturation experiments): 61.6±3.8 nmol mg protein^−1 h^−‘ |
| CCN(CC)C(=O)/C(C#N)=C/c1cc(O)c(O)c([N+](=O)[O-])c1 [Entacapone, (E)-2-cyano-N,N-diethyl-3-(3,4-dihydroxy-5-nitrophenyl)acrylamide] |  |  |  |  |  |  |  |  |  |  |  |  | pattern of locomotor activity and stereotyped behaviour versus corresponding controls [5]: same pattern of locomotor activity and stereotyped behaviour as their corresponding controls |
| O=C(c1ccccc1)c1cc(O)c(O)c([N+](=O)[O-])c1 [Compound A, 3,4-dihydroxy-5-nitrobenzophenone] | 7.1 | 99.0 ± 0.2 | 98.7 ± 0.2 | 96.9 ± 2.5 | 80.5 ± 7.3 | 31.7 ± 5.5 | 96.3 ± 0.4 | 96.8 ± 0.3 | 97.0 ± 0.3 | 85.8 ± 7.5 | 34.9 ± 6.0 | 935 |  |
| CC(N)Cc1ccccc1 (centres unmarked) [amphetamine] |  |  |  |  |  |  |  |  |  |  |  |  | duration of stereotypies during the 600 s observation period ([5]; amphetamine 4.0 mg/kg s.c. alone): 250 s; horizontal activity and rearing ([5]; amphetamine 0.5 and 2.0 mg/kg s.c. alone): dose-dependent increases |
| O=C(CCCCc1ccccc1)c1cc(O)c(O)c([N+](=O)[O-])c1 [E] | 6.7 | 99.2 ± 0.1 | 98.9 ± 0.3 | 88.1 ± 3.9 | 36.0 ± 6.3 | −4.0 ± 8.0 | 87.4 ± 1.3 | 74.2 ± 4.2 | 25.0 ± 3.1 | −5.6 ± 7.5 | −6.7 ± 5.0 | 1280 | inhibitory profile on brain versus liver COMT after oral administration ([2]; rat, comparison of brain and liver COMT inhibition (Table 2)): much more potent upon liver COMT than brain COMT |
| Cc1ccc(C(=O)c2cc(O)c(O)c([N+](=O)[O-])c2)cc1 [Tolcapone, 3,4-dihydroxy4′-methyl-5-nitrobenzophenone, reference compound] |  | 100.0 ± 0.0 | 99.9 ± 0.1 | 98.0 ± 0.7 | 94.1 ± 0.3 | 67.0 ± 4.0 | 98.9 ± 0.1 | 98.7 ± 0.2 | 97.0 ± 0.5 | 85.8 ± 8.2 | 77.5 ± 1.8 |  | ED50 ([2]; rat, po, read-out: ED50 for inhibiting liver COMT): 0.7 ± 0.1 mg/kg; inhibition in brain and liver COMT at 6 h and 9 h after administration ([3]; rat, oral, 6 h and 9 h, brain and liver): marked inhibition; ED50 ([3]; rat, po, read-out: ED50 for inhibiting brain COMT): 1.6 ± 0.1 mg/kg; duration of stereotyped behavior in rats given 4.0 mg/kg amphetamine [5, 8]: increased two-fold; locomotor activity in rats given 4.0 mg/kg amphetamine [5, 8]: marked decrease in locomotor activity; locomotor activity in rats treated with 0.5 and 2.0 mg/kg amphetamine [5, 8]: significantly increase locomotor activity; half-life [6]: 2 h |
| O=C(CCc1ccccc1)c1cc(O)c(O)c([N+](=O)[O-])c1 [C] | 3.1 | 98.4 ± 0.3 | 97.8 ± 0.2 | 95.0 ± 0.7 | 70.8 ± 12.8 | 39.9 ± 11.1 | 89.9 ± 0.7 | 86.2 ± 0.5 | 59.8 ± 5.8 | 33.4 ± 7.0 | 0.4 ± 5.3 | 829 |  |
| O=C(Cc1ccccc1)c1cc(O)c(O)c([N+](=O)[O-])c1 [Compound B, 1-(3,4-Dihydroxy-5-nitrophenyl)-2-phenyl-1-ethanone] |  |  |  |  |  |  |  |  |  |  |  |  | pattern of locomotor activity and stereotyped behaviour versus corresponding controls [5]: same pattern of locomotor activity and stereotyped behaviour as their corresponding controls |
| B1 |  |  |  |  |  |  |  |  |  |  |  |  | Km ([7]; other: whole brain homogenate): 0.7 µM |
| B2 |  |  |  |  |  |  |  |  |  |  |  |  | Km ([7]; other: liver homogenate): 238.5 (128.5; 348.5) μM |

From US6512136B1, “Substituted 2-phenyl-1-(3,4-dihydroxy-5-nitrophenyl)-1-ethanones, their use in the treatment of some central and peripheral nervous system disorders and pharmaceutical compositions containing them” (Portela & C.A., S.A., priority 1998, dated 2003)
